Test results as given in ChEMBL document CHEMBL3098126, “Identification through structure-based methods of a bacterial NAD(+)-dependent DNA ligase inhibitor that avoids known resistance mutations” (Bioorg Med Chem Lett, 2014).
In brackets after ≈: the same amount, converted by molar mass.

Assays:
[1] = Inhibition of Enterococcus faecalis LigA
[2] = Inhibition of Haemophilus influenzae LigA
[3] = target: DNA ligase (Staphylococcus aureus, UniProt Q9AIU7); assay: Inhibition of Staphylococcus aureus LigA
[4] = Inhibition of Streptococcus pneumoniae LigA L75F mutant
[5] = Inhibition of wild type Streptococcus pneumoniae LigA
[6] = tested on: Streptococcus pneumoniae; assay: Antibacterial activity against Streptococcus pneumoniae ARC548; assay type: functional
[7] = tested on: Streptococcus pneumoniae; assay: Selectivity ratio of IC50 for Streptococcus pneumoniae LigA L75F mutant to IC50 for wild type Streptococcus pneumoniae LigA

IC50 [1] [µM] | IC50 [2] [µM] | IC50 [3] [µM] | IC50 [5] [µM] | SMILES | IC50 [4] [µM] | MIC [6] [µg/mL] | Ratio IC50 [7]
> 200 | > 200 | > 200 | > 140 | Cc1csc2c(C(N)=O)cnc(N)c12 | – | – | –
> 200 | > 200 | > 200 | > 200 | NC(=O)c1cnc(NCCO)c2cc(Br)sc12 | – | – | –
> 200 | > 200 | > 200 | 25 | NC(=O)c1cnc(N)c2ccsc12 | – | – | –
100 | > 200 | 36 | 29 | NC(=O)c1cnc(N)c2cc(-c3ccn[nH]3)sc12 | – | – | –
130 | 200 | 180 | 150 | CCCNc1ncc(C(N)=O)c2sc(Br)cc12 | – | – | –
> 200 | > 200 | 75 | 140 | CCNC(=O)c1cc2c(N)ncc(C(N)=O)c2s1 | – | – | –
160 | 160 | 150 | > 200 | NC(=O)c1cnc(Nc2ccccc2)c2cc(Br)sc12 | – | – | –
> 200 | > 200 | > 200 | 100 | NC(=O)c1cnc(N)c2c(-c3ccn[nH]3)csc12 | – | – | –
34 | > 200 | 15 | 9.4 | NC(=O)c1cc2c(N)ncc(C(N)=O)c2s1 | – | – | –
> 200 | > 200 | > 200 | 200 | Cc1cc2c(N)ncc(C(N)=O)c2s1 | – | – | –
> 200 | > 200 | 69 | 52 | NC(=O)c1cnc(N)c2c(C(N)=O)csc12 | – | – | –
130 | > 200 | 39 | 36 | NC(=O)c1cnc(N)c2c(Br)csc12 | – | – | –

SMILES | IC50 [1] [µM] | IC50 [2] [µM] | IC50 [3] [µM] | IC50 [5] [µM] | IC50 [4] [µM] | MIC [6] [µg/mL] | Ratio IC50 [7]
Cc1c(Br)sc2c(C(N)=O)cnc(N)c12 | 8.1 | > 200 | 7.1 | 3.1 | 37 | – | –
CCOC(=O)c1cc2c(N)ncc(C(N)=O)c2s1 | 74 | > 200 | 8.9 | 9.4 | – | – | –
Nc1nc(OC2CCCC2)nc2c1ncn2[C@@H]1O[C@H](CO)[C@@H](O)[C@H]1O | – | 0.51 | 0.43 | 0.21 | 33 | 8 (≈ 22.8 µM) | –
NC(=O)c1cnc(N)c2cc(Br)sc12 | 77 | 160 | 48 | 21 | 48 | > 64 | 2
